The results in this text go back to article PMC5218480 (PLoS ONE, 2017).

In the experiment the test system is MV-4-11 cells. Nature of the experiment: Gene expression microarray analysis (Affymetrix PrimeView) and GSEA. The arrangement: RFU PODN (11730768_x_at) / Fold change /veh PODN (11730768_x_at) / RFU LINC00158 (11744669_a_at) / Fold change /veh LINC00158 (11744669_a_at) / RFU DUSP10 (11751237_a_at) / Fold change /veh DUSP10 (11751237_a_at) / RFU ID3 (11757404_x_at) / Fold change /veh ID3 (11757404_x_at) / RFU PLEKHG5 (11737974_s_at) / Fold change /veh PLEKHG5 (11737974_s_at) / RFU LRRC4B (11730491_at) / Fold change /veh LRRC4B (11730491_at) / RFU GIMAP4 (11747438_a_at) / Fold change /veh GIMAP4 (11747438_a_at) / RFU KRT8 (11758183_x_at) / Fold change /veh KRT8 (11758183_x_at) / RFU CNN1 (11734310_a_at) / Fold change /veh CNN1 (11734310_a_at) / RFU VPS37D (11726825_at) / Fold change /veh VPS37D (11726825_at) / RFU C10orf10 (11716522_x_at) / Fold change /veh C10orf10 (11716522_x_at) / RFU KIR2DL2 /// KIR2DL4 /// KIR2DL5A /// KIR2DL5B /// KIR2DS1 /// KIR2DS2 /// KIR2DS3 /// KIR2DS4 /// KIR3DL3 /// KIR3DL3 /// KIR3DS1 (11738374_at) / Fold change /veh KIR2DL2 /// KIR2DL4 /// KIR2DL5A /// KIR2DL5B /// KIR2DS1 /// KIR2DS2 /// KIR2DS3 /// KIR2DS4 /// KIR3DL3 /// KIR3DL3 /// KIR3DS1 (11738374_at) / RFU C1QL1 (11718748_at) / Fold change /veh C1QL1 (11718748_at) / RFU TMPRSS4 (11747572_a_at) / Fold change /veh TMPRSS4 (11747572_a_at) / RFU HAMP (11756126_x_at) / Fold change /veh HAMP (11756126_x_at) / RFU RNFT2 (11725882_a_at) / Fold change /veh RNFT2 (11725882_a_at) / RFU NR4A2 (11747474_a_at) / Fold change /veh NR4A2 (11747474_a_at) / RFU ABCC12 (11746883_a_at) / Fold change /veh ABCC12 (11746883_a_at) / RFU TMEM136 (11760407_x_at) / Fold change /veh TMEM136 (11760407_x_at) / RFU CLDN22 /// WWC2 (11732394_at) / Fold change /veh CLDN22 /// WWC2 (11732394_at) / RFU HLA-DPB1 (11760878_x_at) / Fold change /veh HLA-DPB1 (11760878_x_at) / RFU SPINT1 (11716480_a_at) / Fold change /veh SPINT1 (11716480_a_at) / RFU GAP43 (11754022_s_at) / Fold change /veh GAP43 (11754022_s_at) / RFU A4GNT (11735810_at) / Fold change /veh A4GNT (11735810_at) / RFU PRB3 (11715151_x_at) / Fold change /veh PRB3 (11715151_x_at) / RFU TUBB4B (11761932_at) / Fold change /veh TUBB4B (11761932_at) / RFU CAPN14 (11732068_a_at) / Fold change /veh CAPN14 (11732068_a_at) / RFU TMCC2 (11721928_a_at) / Fold change /veh TMCC2 (11721928_a_at) / RFU IRGQ (11745062_a_at) / Fold change /veh IRGQ (11745062_a_at) / RFU FAM174B (11720279_a_at) / Fold change /veh FAM174B (11720279_a_at) / RFU TMPRSS4 (11748680_a_at) / Fold change /veh TMPRSS4 (11748680_a_at) / RFU FAM212B (11763350_a_at) / Fold change /veh FAM212B (11763350_a_at) / RFU PLEKHG5 (11743358_a_at) / Fold change /veh PLEKHG5 (11743358_a_at) / RFU ZSCAN30 (11745921_a_at) / Fold change /veh ZSCAN30 (11745921_a_at) / RFU CMKLR1 (11741424_a_at) / Fold change /veh CMKLR1 (11741424_a_at) / RFU LOC101060620 /// MAPK8IP1 (11723275_at) / Fold change /veh LOC101060620 /// MAPK8IP1 (11723275_at) / RFU SPTSSB (11747773_x_at) / Fold change /veh SPTSSB (11747773_x_at) / RFU PRSS12 (11739890_at) / Fold change /veh PRSS12 (11739890_at) / RFU BIN1 (11741810_x_at) / Fold change /veh BIN1 (11741810_x_at) / RFU WNT11 (11732464_a_at) / Fold change /veh WNT11 (11732464_a_at) / RFU C10orf10 (11716521_a_at) / Fold change /veh C10orf10 (11716521_a_at) / RFU C5orf56 (11738089_at) / Fold change /veh C5orf56 (11738089_at) / RFU CYB561 (11721691_x_at) / Fold change /veh CYB561 (11721691_x_at) / RFU ANKRD19P (11752326_a_at) / Fold change /veh ANKRD19P (11752326_a_at) / RFU OR2T12 /// OR2T33 /// OR2T8 (11738714_s_at) / Fold change /veh OR2T12 /// OR2T33 /// OR2T8 (11738714_s_at) / RFU VCAN (11748164_a_at) / Fold change /veh VCAN (11748164_a_at) / RFU JSRP1 (11732532_at) / Fold change /veh JSRP1 (11732532_at) / RFU KRTAP10-11 (11738290_x_at) / Fold change /veh KRTAP10-11 (11738290_x_at) / RFU MYO3A (11730013_a_at) / Fold change /veh MYO3A (11730013_a_at) / RFU EBF3 (11725865_a_at) / Fold change /veh EBF3 (11725865_a_at) / RFU CAMK2N1 (11719241_x_at) / Fold change /veh CAMK2N1 (11719241_x_at) / RFU C5orf56 (11738088_a_at) / Fold change /veh C5orf56 (11738088_a_at) / RFU OLFML3 (11715873_a_at) / Fold change /veh OLFML3 (11715873_a_at) / RFU LOC100653217 /// NTM (11731650_a_at) / Fold change /veh LOC100653217 /// NTM (11731650_a_at) / RFU MAPK11 (11762145_a_at) / Fold change /veh MAPK11 (11762145_a_at) / RFU FIZ1 (11724087_x_at) / Fold change /veh FIZ1 (11724087_x_at) / RFU OASL (11726364_x_at) / Fold change /veh OASL (11726364_x_at) / RFU SOX15 (11748057_x_at) / Fold change /veh SOX15 (11748057_x_at) / RFU CD79A (11719716_a_at) / Fold change /veh CD79A (11719716_a_at) / RFU HIST1H1D (11736915_at) / Fold change /veh HIST1H1D (11736915_at) / RFU CASKIN2 (11723855_a_at) / Fold change /veh CASKIN2 (11723855_a_at) / RFU LOC730098 (11760151_x_at) / Fold change /veh LOC730098 (11760151_x_at) / RFU OR4N2 (11742367_at) / Fold change /veh OR4N2 (11742367_at) / RFU PRRT2 (11749266_a_at) / Fold change /veh PRRT2 (11749266_a_at) / RFU SNX32 (11753110_a_at) / Fold change /veh SNX32 (11753110_a_at) / RFU CDHR5 (11726645_a_at) / Fold change /veh CDHR5 (11726645_a_at) / RFU RCAN1 (11760418_a_at) / Fold change /veh RCAN1 (11760418_a_at) / RFU FAM167A (11723789_a_at) / Fold change /veh FAM167A (11723789_a_at) / RFU FAM26E (11764081_at) / Fold change /veh FAM26E (11764081_at) / RFU ISYNA1 (11749810_s_at) / Fold change /veh ISYNA1 (11749810_s_at) / RFU ACY1 (11761880_at) / Fold change /veh ACY1 (11761880_at) / RFU 11764098_at / Fold change /veh 11764098_at / RFU SAMD14 (11745864_x_at) / Fold change /veh SAMD14 (11745864_x_at) / RFU NPB (11741838_a_at) / Fold change /veh NPB (11741838_a_at) / RFU TMPRSS6 (11731388_a_at) / Fold change /veh TMPRSS6 (11731388_a_at) / RFU KRTAP10-2 (11738614_at) / Fold change /veh KRTAP10-2 (11738614_at) / RFU ARHGAP8 /// PRR5-ARHGAP8 (11727945_x_at) / Fold change /veh ARHGAP8 /// PRR5-ARHGAP8 (11727945_x_at) / RFU KRTAP5-7 /// NADSYN1 (11734609_at) / Fold change /veh KRTAP5-7 /// NADSYN1 (11734609_at) / RFU RASL12 (11751679_a_at) / Fold change /veh RASL12 (11751679_a_at) / RFU CDKN2B (11736163_a_at) / Fold change /veh CDKN2B (11736163_a_at) / RFU PRF1 (11729649_at) / Fold change /veh PRF1 (11729649_at) / RFU, ZNF638 /// ZNF638-IT1 / Fold change vs veh, ZNF638 /// ZNF638-IT1 / RFU, PANK3 / Fold change vs veh, PANK3 / RFU, SH3YL1 / Fold change vs veh, SH3YL1 / RFU, ZEB2 / Fold change vs veh, ZEB2 / RFU, NRIP1 / Fold change vs veh, NRIP1 / RFU, PTTG1IP / Fold change vs veh, PTTG1IP / RFU, CAPN2 / Fold change vs veh, CAPN2 / RFU, MED14 / Fold change vs veh, MED14 / RFU, SNORA58 / Fold change vs veh, SNORA58 / RFU, C1orf63 / Fold change vs veh, C1orf63 / RFU, LRRFIP1 / Fold change vs veh, LRRFIP1 / RFU, NDUFAF7 / Fold change vs veh, NDUFAF7 / RFU, SLC12A2 / Fold change vs veh, SLC12A2 / RFU, IBTK / Fold change vs veh, IBTK / RFU, ESF1 / Fold change vs veh, ESF1 / Fold change vs veh, TMEM50B / RFU, TAOK1 / Fold change vs veh, TAOK1 / RFU, ACBD3 / Fold change vs veh, ACBD3 / RFU, TMA16 / Fold change vs veh, TMA16 / RFU, RWDD3 / Fold change vs veh, RWDD3 / RFU, BCAT1 / Fold change vs veh, BCAT1 / RFU, EDEM3 / Fold change vs veh, EDEM3 / RFU, TMEM33 / Fold change vs veh, TMEM33 / RFU, WDR75 / Fold change vs veh, WDR75 / RFU, AHCTF1 / Fold change vs veh, AHCTF1 / RFU, TFRC / Fold change vs veh, TFRC / RFU, ZDHHC17 / Fold change vs veh, ZDHHC17 / RFU, NOM1 / Fold change vs veh, NOM1 / RFU, ARL8B / Fold change vs veh, ARL8B / RFU, ZBTB11 / Fold change vs veh, ZBTB11 / RFU, TAMM41 / Fold change vs veh, TAMM41 / RFU, KIAA1704 /// LOC100996395 / Fold change vs veh, KIAA1704 /// LOC100996395 / RFU, ING1 / Fold change vs veh, ING1 / RFU, TRMT61B / Fold change vs veh, TRMT61B / RFU, FUBP3 / Fold change vs veh, FUBP3 / RFU, TP53 / Fold change vs veh, TP53 / RFU, TNKS2 / Fold change vs veh, TNKS2 / RFU, ZFP14 / Fold change vs veh, ZFP14 / RFU, ACTR2 / Fold change vs veh, ACTR2 / RFU, PPP3R1 / Fold change vs veh, PPP3R1 / RFU, PIK3R1 / Fold change vs veh, PIK3R1 / RFU, HNRNPA1 / Fold change vs veh, HNRNPA1 / RFU, RNF170 / Fold change vs veh, RNF170 / RFU, ZNF28 / Fold change vs veh, ZNF28 / RFU, RNGTT / Fold change vs veh, RNGTT / RFU, OGT / Fold change vs veh, OGT / RFU, BRD1 / Fold change vs veh, BRD1 / RFU, MARS / Fold change vs veh, MARS / RFU, ZNF655 / Fold change vs veh, ZNF655 / RFU, FAHD1 / Fold change vs veh, FAHD1 / RFU, BDP1 / Fold change vs veh, BDP1 / RFU, LRRCC1 / Fold change vs veh, LRRCC1 / RFU, ARID1A / Fold change vs veh, ARID1A / RFU, ZNF146 / Fold change vs veh, ZNF146 / RFU, ZNF330 / Fold change vs veh, ZNF330 / RFU, GPN3 / Fold change vs veh, GPN3 / RFU, C9orf123 / Fold change vs veh, C9orf123 / RFU, N4BP2L2 / Fold change vs veh, N4BP2L2 / RFU, ARFIP1 / Fold change vs veh, ARFIP1 / RFU, FAM179B / Fold change vs veh, FAM179B / RFU, BCL10 / Fold change vs veh, BCL10 / RFU, UHRF1BP1L / Fold change vs veh, UHRF1BP1L / RFU, BET1 / Fold change vs veh, BET1 / RFU, CNOT2 / Fold change vs veh, CNOT2 / RFU, ZNF268 / Fold change vs veh, ZNF268 / Fold change vs veh, ZNF507 / RFU, DGCR2 / Fold change vs veh, DGCR2 / RFU, WDSUB1 / Fold change vs veh, WDSUB1 / Fold change vs veh, HSP90B1 /// MIR3652 / RFU, ADSS / Fold change vs veh, ADSS / RFU, GK / Fold change vs veh, GK / RFU, ZNF148 / Fold change vs veh, ZNF148 / RFU, TAF9 / Fold change vs veh, TAF9 / RFU, SLC1A5 / Fold change vs veh, SLC1A5 / RFU, SLMO2 / Fold change vs veh, SLMO2 / RFU, ABCC4 / Fold change vs veh, ABCC4 / RFU, LOC101060439 /// RAP1B / Fold change vs veh, LOC101060439 /// RAP1B / RFU, RFX7 / Fold change vs veh, RFX7 / RFU, GTPBP10 / Fold change vs veh, GTPBP10 / RFU, CNEP1R1 / Fold change vs veh, CNEP1R1 / RFU, BIVM-ERCC5 /// ERCC5 / Fold change vs veh, BIVM-ERCC5 /// ERCC5 / RFU, ILF3 / Fold change vs veh, ILF3 / RFU 11762660_at / Fold change /veh 11762660_at / RFU VCAN (11757783_s_at) / Fold change /veh VCAN (11757783_s_at) / RFU DDX43 (11728927_at) / Fold change /veh DDX43 (11728927_at) / RFU KRT8 (11758188_x_at) / Fold change /veh KRT8 (11758188_x_at) / RFU NKD1 (11759106_at) / Fold change /veh NKD1 (11759106_at) / RFU SRD5A1 (11742802_a_at) / Fold change /veh SRD5A1 (11742802_a_at) / RFU TPSAB1 /// TPSB2 (11721975_s_at) / Fold change /veh TPSAB1 /// TPSB2 (11721975_s_at) / RFU GSTM3 (11746129_a_at) / Fold change /veh GSTM3 (11746129_a_at) / RFU IL23R (11737362_x_at) / Fold change /veh IL23R (11737362_x_at) / RFU TMEM51 (11727254_a_at) / Fold change /veh TMEM51 (11727254_a_at) / RFU PIWIL2 (11732686_x_at) / Fold change /veh PIWIL2 (11732686_x_at) / RFU ORM1 (11744905_x_at) / Fold change /veh ORM1 (11744905_x_at) / RFU CCDC152 (11743942_at) / Fold change /veh CCDC152 (11743942_at) / RFU ECM1 (11717891_a_at) / Fold change /veh ECM1 (11717891_a_at) / RFU IL23R (11748794_a_at) / Fold change /veh IL23R (11748794_a_at) / RFU TNFAIP8L3 (11732012_x_at) / Fold change /veh TNFAIP8L3 (11732012_x_at) / RFU MBOAT4 (11741988_at) / Fold change /veh MBOAT4 (11741988_at) / RFU 11764193_at / Fold change /veh 11764193_at / RFU TMEM53 (11763286_at) / Fold change /veh TMEM53 (11763286_at) / RFU MAGEB2 (11727129_at) / Fold change /veh MAGEB2 (11727129_at) / RFU TMEM200A (11744735_a_at) / Fold change /veh TMEM200A (11744735_a_at) / RFU CCDC152 (11751479_a_at) / Fold change /veh CCDC152 (11751479_a_at) / RFU FAM211A (11726209_a_at) / Fold change /veh FAM211A (11726209_a_at) / RFU RGS16 (11746705_a_at) / Fold change /veh RGS16 (11746705_a_at) / RFU VCAN (11755009_s_at) / Fold change /veh VCAN (11755009_s_at) / RFU RHOB (11743442_s_at) / Fold change /veh RHOB (11743442_s_at) / RFU RGS16 (11720943_a_at) / Fold change /veh RGS16 (11720943_a_at) / RFU RGS16 (11720944_at) / Fold change /veh RGS16 (11720944_at) / RFU, VPS4B / Fold change vs veh, VPS4B / RFU, CREB1 / Fold change vs veh, CREB1 / RFU, DNAJC13 / Fold change vs veh, DNAJC13 / RFU, GNAQ / Fold change vs veh, GNAQ / RFU, CDK5R1 / Fold change vs veh, CDK5R1 / RFU, ZRANB3 / Fold change vs veh, ZRANB3 / RFU, CUL4A / Fold change vs veh, CUL4A / RFU, CCNY / Fold change vs veh, CCNY / RFU, UFL1 / Fold change vs veh, UFL1 / RFU, COG3 / Fold change vs veh, COG3 / RFU, DIAPH2 / Fold change vs veh, DIAPH2 / RFU, SKA2 / Fold change vs veh, SKA2 / RFU, AFF3 / Fold change vs veh, AFF3 / RFU, LMF1 / Fold change vs veh, LMF1 / RFU, IPO11 / Fold change vs veh, IPO11 / RFU, DFFB / Fold change vs veh, DFFB / RFU, FOXP1 / Fold change vs veh, FOXP1 / RFU, CARD8 / Fold change vs veh, CARD8 / RFU, STRN3 / Fold change vs veh, STRN3 / RFU, ADK / Fold change vs veh, ADK / RFU, RASSF2 / Fold change vs veh, RASSF2 / RFU, WIPF1 / Fold change vs veh, WIPF1 / RFU, LARP1B / Fold change vs veh, LARP1B / RFU, RASA1 / Fold change vs veh, RASA1 / RFU, RB1 / Fold change vs veh, RB1 / RFU, PPFIA1 / Fold change vs veh, PPFIA1 / RFU, MAT2A / Fold change vs veh, MAT2A / RFU, CCT5 / Fold change vs veh, CCT5 / RFU, WDR92 / Fold change vs veh, WDR92 / RFU, CUX1 / Fold change vs veh, CUX1 / RFU, TTC7A / Fold change vs veh, TTC7A / RFU, TMEM135 / Fold change vs veh, TMEM135 / RFU, DEPTOR / Fold change vs veh, DEPTOR / RFU, CPM / Fold change vs veh, CPM / RFU, DNAJB6 / Fold change vs veh, DNAJB6 / RFU, CACNA2D3 / Fold change vs veh, CACNA2D3 / RFU, DTX4 / Fold change vs veh, DTX4 / RFU, TFCP2 / Fold change vs veh, TFCP2 / RFU, GMCL1 /// GMCL1P1 / Fold change vs veh, GMCL1 /// GMCL1P1 / RFU, AEBP2 / Fold change vs veh, AEBP2 / RFU, SNHG1 /// SNORD22 /// SNORD25 /// SNORD26 /// SNORD27 /// SNORD28 /// SNORD29 /// SNORD31 / Fold change vs veh, SNHG1 /// SNORD22 /// SNORD25 /// SNORD26 /// SNORD27 /// SNORD28 /// SNORD29 /// SNORD31 / Fold change (Aza/veh), C12orf56 (ProbeSet 11735607_a_at) / Fold change (ACY-1035/veh), C12orf56 (ProbeSet 11735607_a_at) / Fold change (Aza/veh), FGFR1OP (ProbeSet 11751329_s_at) / Fold change (ACY-1035/veh), FGFR1OP (ProbeSet 11751329_s_at) / Fold change (Aza/veh), VPS36 (ProbeSet 11739960_a_at) / Fold change (ACY-1035/veh), VPS36 (ProbeSet 11739960_a_at) / RFU SYPL1 (11715823_x_at) / Fold change /veh SYPL1 (11715823_x_at) / RFU IGFBP7 (11715501_s_at) / Fold change /veh IGFBP7 (11715501_s_at) / RFU REEP3 (11722064_at) / Fold change /veh REEP3 (11722064_at) / RFU IGLL1 (11728026_x_at) / Fold change /veh IGLL1 (11728026_x_at): dose or concentration left out as unconfirmed. It counts as cell-based, human. Conditions: MV-4-11 cells, 48 hours.

Molecules are shown by their SMILES.

For `Nc1ccc(-c2cccs2)cc1NC(=O)c1ccc2c(c1)cc(C1CC1)n2CCN1CCOCC1` [ACY-1035], the “Fold change /veh SPTSSB (11747773_x_at)” value was 0.98.
